Assay results reported in PMC8778818, “Synthesis, Structural Characterization and Anticancer Activity of New 5-Trifluoromethyl-2-thioxo-thiazolo[4,5-d]pyrimidine Derivatives” (Pharmaceuticals, 2022).
“Also recorded” adds a separate entry of the source.

Experiments:
HCT-116 = experiment: NCI-60 screen, Colon Cancer HCT-116; assay type: cell-based, human; settings: HCT-116, 10^−5 M one dose
MCF7 = experiment: NCI-60 screen, Breast Cancer MCF7; assay type: cell-based, human; settings: MCF7, 10^−5 M one dose
SNB-19 = experiment: NCI-60 screen, CNS Cancer SNB-19; assay type: cell-based, human; settings: SNB-19, 10^−5 M one dose
LOX IMVI = experiment: NCI-60 screen, Melanoma LOX IMVI; assay type: cell-based, human; settings: 10^−5 M one dose
DU-145 = experiment: NCI-60 screen, Prostate C. DU-145; assay type: cell-based; settings: DU-145, 10^−5 M one dose
BT-549 = experiment: NCI-60 screen, Breast Cancer BT-549; assay type: cell-based, human; settings: BT-549, 10^−5 M one dose
UACC-62 = experiment: NCI-60 screen, Melanoma UACC-62; assay type: cell-based, human; settings: UACC-62, 10^−5 M one dose
SF-539 = experiment: NCI-60 screen, CNS Cancer SF-539; assay type: cell-based, human; settings: SF-539, 10^−5 M one dose
[1] = tested on: A375, C32, DU145, MCF-7/WT, CHO-K1 and HaCaT cell lines; experiment: MTT cell viability assay, all six cell lines; assay type: cell-based; settings: mean over the six cell lines; read-out: Mean A: the mean IC50 for the given compound
Description: (§1) Twelve compounds (2a-e, 3a-d and 4a-c) at a concentration range of 50–5000 μM were tested for their antiproliferative potential against four human cancer cell lines (A375—melanotic melanoma, C32—amelanotic melanoma, DU145—prostate cancer androgen-independent, MCF-7/WT—breast adenocarcinoma) and two normal cell lines: Chinese Hamster Ovary (CHO-K1) and immortalized human keratinocytes from histologically normal skin (HaCaT).
(§2) To determine the antiproliferative activity of newly synthesized compounds, the following cell lines were used: human melanotic melanoma cell line (A375), human amelanotic melanoma cell line (C32), human breast adenocarcinoma cell line (MCF-7/WT), human prostate cancer androgen-independent (DU145) and two normal cell lines: hamster ovarian (CHO-K1) and immortalized human keratinocytes from histologically normal skin (HaCaT). The cells were obtained from the cell line bank of the Department of Molecular and Cellular Biology, Wroclaw Medical University. A375, C32, MCF-7/WT, DU145 and HaCaT cells were grown in a monolayer cultured in Dulbecco’s Modified Eagle’s Medium (DMEM, Sigma-Aldrich, Poznań, Poland), supplemented with 10% of fetal bovine serum (FBS, Gibco, Paisley, UK) and 1% of antibiotics (penicillin/streptomycin, Sigma-Aldrich) and CHO-K1 were grown in HAM’s F-12 medium (Sigma-Aldrich), supplemented with 10% fetal bovine serum (FBS, Gibco) and 1% of antibiotics (penicillin/streptomycin, Sigma-Aldrich). Cell lines were cultured in the polystyrene flasks 25 or 75 cm^2 (Thermo Fisher Scientific, Waltham, MA, USA), which were stored in 37 °C and 5% CO2 in a humidified 95% atmosphere (SteriCult, Thermo Scientific, Alab). The cell medium was exchanged twice a week. The exponentially growing cells were used throughout the experiments. The cells were rinsed with phosphate-buffered saline (PBS, Sigma-Aldrich) and trypsinized by Trypsin-EDTA 0.25% solution (Sigma-Aldrich).
(§3) The influence of the compounds was performed in a monolayer culture on cancer and normal cells. Compounds were initially dissolved in DMSO; further dilutions of the compound were performed in Dulbecco’s Modified Eagle’s Medium supplemented with 10% FBS. Compounds were tested in a 50–5000 µM concentration range. In the in vitro experiments, the concentrations of DMSO in the final solution of the compounds were used 0.05%; 0.1%; 0.5%; 1%, respectively.
(§4) Cell viability was determined using the MTT colorimetric assay. All cell lines were seeded into 96-well plates to a density of 3 × 10^4 cells/well. After 24 h, the culture supernatants were removed and appropriate dilutions of compounds in the culture medium (200 µL/well) were added to the cells’ monolayer cultures and incubated for an additional 72 h. After 72 h of exposition to the compounds and the removal of the culture medium, cell viability was determined by reducing the yellow dye 3-(4,5-dimethyl-2-thiazol)-2,5-diphenyl-2H-tetrazolium bromide (MTT assay, Sigma Saint Louis, MO, USA; In Vitro Toxicology Assay) to a blue formazan product. The absorbance of the resulting solutions in three duplicate experiments was measured at the wavelength of 560 nm in a microplate reader (EnSpire, Perkin Elmer, Kraków, Poland). MTT assay is a colorimetric method that estimates the rate of metabolism in viable cells. Absorbance is directly proportional to the number of viable cells. All the experiments were performed three times and the mean absorbance values were calculated. The methodology for the evaluation of the growth of human cancer and normal cells was described previously. The cell viability in each group was expressed as a percentage of control (untreated) cells.

NCI/ADR-RES = experiment: NCI-60 screen, Ovarian Cancer NCI/ADR-RES; assay type: cell-based, human; settings: 10^−5 M one dose
UACC-257 = experiment: NCI-60 screen, Melanoma UACC-257; assay type: cell-based; settings: UACC-257, 10^−5 M one dose
KM12 = experiment: NCI-60 screen, Colon Cancer KM12; assay type: cell-based, human; settings: KM12, 10^−5 M one dose
TK-10 = experiment: NCI-60 screen, Renal Cancer TK-10; assay type: cell-based, human; settings: TK-10, 10^−5 M one dose
PC-3 = experiment: NCI-60 screen, Prostate C. PC-3; assay type: cell-based; settings: PC-3, 10^−5 M one dose
[2] = tested on: 60 human cancer cell lines; experiment: NCI-60 anticancer screen, full panel; assay type: cell-based; settings: 10^−5 M one dose
DU145 = experiment: MTT cell viability assay, DU145; assay type: cell-based, human; settings: Homo sapiens, DU-145; DU145, MTT, 72 h, mean ± SD
Description: as §1, §2, §3, §4

OVCAR-4 = experiment: NCI-60 screen, Ovarian Cancer OVCAR-4; assay type: cell-based, human; settings: OVCAR-4, 10^−5 M one dose
HaCaT = experiment: MTT cell viability assay, HaCaT; assay type: cell-based, human; settings: Homo sapiens; HaCaT normal cells, MTT, 72 h, mean ± SD
Description: as §1, §2, §3, §4

A549/ATCC = experiment: NCI-60 screen, Non-Small Cell Lung Cancer A549/ATCC; assay type: cell-based, human; settings: 10^−5 M one dose
HOP-92 = experiment: NCI-60 screen, Non-Small Cell Lung Cancer HOP-92; assay type: cell-based, human; settings: HOP-92, 10^−5 M one dose

SMILES: Fc1ccc(CNc2nc(C(F)(F)F)nc3c2sc(=S)n3-c2ccccc2)cc1 [Compound 4c]
- Growth of Cells (%) (HCT-116): 111.01%
- Growth of Cells (%) (MCF7): 98.77%
- Growth of Cells (%) (SNB-19): 106.48%
- Growth of Cells (%) (LOX IMVI): 109.59%
- Growth of Cells (%) (DU-145): 122.63%
- Growth of Cells (%) (BT-549): 98.87%
- Growth of Cells (%) (UACC-62): 105.93%
- Growth of Cells (%) (SF-539): 102.28%
- IC50 [1]: 485 µM
- Growth of Cells (%) (NCI/ADR-RES): 114.00%
- Growth of Cells (%) (UACC-257): 96.72%
- Growth of Cells (%) (KM12): 113.23%
- Growth of Cells (%) (TK-10): 130.70%
- Growth of Cells (%) (PC-3): 100.51%
- activity in the one-dose assay (in words) [2]: insufficient activity; also recorded: inactive
- Mean Growth % ([2]; mean over the panel): 105.13%
- IC50 (DU145): 237 ± 10.3 µM
- Growth of Cells (%) (OVCAR-4): 125.04%
- IC50 (HaCaT): 565 ± 24.7 µM
- Growth of Cells (%) (A549/ATCC): 98.32%
- Growth of Cells (%) (HOP-92): 106.96%
